Measured values from patent US20230071840A1, “HETEROCYCLIC GLP-1 AGONISTS” (Gasherbrum Bio, Inc., priority 2020, published 2023).

Molecular target: GLP-1 Receptor (Homo sapiens, UniProt P43220)
Assay: GLP-1R agonist cAMP stimulation assay (HEK293/GLP1R/CRE-LUC cells, cAMP dynamic 2 kit)
Type: cell-based
Settings: HEK293/CRE-Luc cell line stably expressing the GLP-1 Receptor; 30 min incubation at 37° C.; read-out: GLP1R cAMP Stimulation DR: EC50
Experimental: Activation of GLP-1 receptor is known to stimulate cyclic AMP (cAMP) production in cells which indicates primary coupling to the Gas subunit of the G protein heterotrimeric complex.
To optimize functional activity directed toward Gas coupling, a HEK293/CRE-Luc cell line developed by HDB stably expressing the GLP-1 Receptor was used. […] Seal the plate and incubate at 37° C. with 5% CO2 for 30 min.
After incubation the cAMP assay signal was generated using cAMP dynamic 2 Kit (Cisbio). 5 μL cAMP-d2 working solution was added to each well, followed with 5 μL Anti-cAMP antibody-cryptate working solution added to each well using ThermoFisher Multidrop Combi. Incubate at room temperature for 1 hour protected from light.
% Activity=[…]×(mean RLU of test sample−mean RLU of vehicle control)/(mean RLU of MAX control−mean RLU of vehicle control))

GLP-1 Receptor, sequence (P43220 24-463, species assumed): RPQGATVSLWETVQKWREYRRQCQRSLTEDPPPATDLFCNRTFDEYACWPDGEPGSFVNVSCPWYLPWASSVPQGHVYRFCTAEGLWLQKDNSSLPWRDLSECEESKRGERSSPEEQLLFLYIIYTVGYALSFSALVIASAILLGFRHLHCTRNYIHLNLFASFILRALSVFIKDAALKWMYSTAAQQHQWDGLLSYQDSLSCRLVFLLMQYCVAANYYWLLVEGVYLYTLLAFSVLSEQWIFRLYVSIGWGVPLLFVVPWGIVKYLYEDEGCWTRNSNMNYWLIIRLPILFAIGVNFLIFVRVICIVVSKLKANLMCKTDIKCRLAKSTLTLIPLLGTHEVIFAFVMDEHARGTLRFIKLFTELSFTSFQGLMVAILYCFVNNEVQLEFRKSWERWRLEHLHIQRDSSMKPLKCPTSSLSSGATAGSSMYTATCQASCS

First: O=C(O)c1ccc2nc(CN3CCC(n4ccc5ccc(Cc6ccc(Cl)cc6F)nc54)CC3)n(C[C@@H]3CCO3)c2n1 [Compound 140a, 2-[(4-{6-[(4-chloro-2-fluorophenyl)methyl]-1H-pyrrolo[2,3-b]pyridin-1-yl}piperidin-1-yl)methyl]-3-{[(2S)-oxetan-2-yl]methyl}-3H-imidazo[4,5-b]pyridine-5-carboxylic acid]
Second: O=C(O)c1ccc2nc(CN3CCC(Oc4nc(Cc5ccc(Cl)cc5F)ccc4F)CC3)n(C[C@@H]3CCO3)c2n1 [Compound 111a, 2-{[4-({6-[(4-chloro-2-fluorophenyl)methyl]-3-fluoropyridin-2-yl}oxy)piperidin-1-yl]methyl}-3-{[(2S)-oxetan-2-yl]methyl}-3H-imidazo[4,5-b]pyridine-5-carboxylic acid]
The EC50 of the first is 4.1-fold higher: 1.2 nM for the first, 0.29 nM for the second. The second is the more potent here.

First: N#Cc1ccc(Cc2cccc(OC3CCN(Cc4nc5ccc(C(=O)O)nc5n4C[C@@H]4CCO4)CC3)n2)c(F)c1 [Compound 136a, 2-{[4-({6-[(4-cyano-2-fluorophenyl)methyl]pyridin-2-yl}oxy)piperidin-1-yl]methyl}-3-{[(2S)-oxetan-2-yl]methyl}-3H-imidazo[4,5-b]pyridine-5-carboxylic acid]
Second: O=C(O)c1ccc2nc(CN3CCC(Oc4cccc(C(F)(F)c5ccc(Cl)cc5F)n4)CC3)n(C[C@@H]3CCO3)c2n1 [Compound 129a, 2-{[4-({6-[(4-chloro-2-fluorophenyl)difluoromethyl]pyridin-2-yl}oxy)piperidin-1-yl]methyl}-3-{[(2S)-oxetan-2-yl]methyl}-3H-imidazo[4,5-b]pyridine-5-carboxylic acid]
The EC50 of the first is 2.1-fold lower: 0.44 nM for the first, 0.91 nM for the second.

Compared with `O=C(O)c1ccc2nc(CN3CC4CC(Oc5ccnc(Cc6ccc(Cl)cc6)n5)CC4C3)n(C[C@@H]3CCO3)c2n1` (stereo partly drawn) [Compound 201a, 2-{[5-({2-[(4-chlorophenyl)methyl]pyrimidin-4-yl}oxy)-octahydrocyclopenta[c]pyrrol-2-yl]methyl}-3-{[(2S)-oxetan-2-yl]methyl}-3H-imidazo[4,5-b]pyridine-5-carboxylic acid], `O=c1[nH]c(-c2ccc3nc(CN4CCC(Oc5ccnc(Cc6ccc(Cl)cc6)n5)CC4)n(C[C@@H]4CCO4)c3n2)no1` [Compound 198a, (S)-3-(2-((4-((2-(4-chlorobenzyl)pyrimidin-4-yl)oxy)piperidin-1-yl)methyl)-3-(oxetan-2-ylmethyl)-3H-imidazo[4,5-b]pyridin-5-yl)-1,2,4-oxadiazol-5(4H)-one] is 510-fold lower in EC50: 360 nM for the first, 0.7 nM for the second. The second is the more potent here.

Compared with `O=C(O)c1ccc2nc(CN3CCC(Oc4nn(Cc5ccc(Cl)cc5F)cc4Cl)CC3)n(C[C@@H]3CCO3)c2n1` [Compound 183a, 2-{[4-({4-chloro-1-[(4-chloro-2-fluorophenyl)methyl]-1H-pyrazol-3-yl}oxy)piperidin-1-yl]methyl}-3-{[(2S)-oxetan-2-yl]methyl}-3H-imidazo[4,5-b]pyridine-5-carboxylic acid], `O=C(O)c1ccc2nc(CN3CCC(Oc4cccc(Cc5ccc(Cl)cc5)c4Cl)CC3)n(C[C@@H]3CCO3)c2n1` [Compound 158a, 2-[(4-{2-chloro-3-[(4-chlorophenyl)methyl]phenoxy}piperidin-1-yl)methyl]-3-{[(2S)-oxetan-2-yl]methyl}-3H-imidazo[4,5-b]pyridine-5-carboxylic acid] is higher in EC50: 0.85 nM for the first, greater than 1000 nM for the second.

Compared with `O=C(O)c1ccc2nc(C[C@H]3CC[C@H](Oc4ccnc(Cc5ccc(Cl)cc5)n4)CC3)n(C[C@@H]3CCO3)c2c1` [Compound 176a, 1-{[(2S)-oxetan-2-yl]methyl)-2-{[trans-4-({2-[(4-chlorophenyl)methyl]pyrimidin-4-yl}oxy)cyclohexyl]methyl}-1H-1,3-benzodiazole-6-carboxylic acid], `O=C(O)c1ccc2nc(C[C@H]3CC[C@@H](Oc4cccc(Cc5ccc(Cl)cc5F)n4)CC3)n(C[C@@H]3CCO3)c2n1` [Compound 174a, 3-{[(2S)-oxetan-2-yl]methyl}-2-{[cis-4-({6-[(4-chloro-2-fluorophenyl)methyl]pyridin-2-yl}oxy)cyclohexyl]methyl}-3H-imidazo[4,5-b]pyridine-5-carboxylic acid] is 78-fold higher in EC50: 0.37 nM for the first, 29 nM for the second. The first is the more potent here.

Same assay, conditions: HEK293/CRE-Luc cell line stably expressing the GLP-1 Receptor; 30 min incubation at 37° C.; read-out: GLP1R cAMP Stimulation DR: pEC50 (converted)

Compound `O=C(O)c1ccc2nc(CN3CCC(Oc4cccc(C(F)(F)c5ccc(Cl)cc5F)n4)CC3)n(C[C@@H]3CCO3)c2n1` [Compound 129a, 2-{[4-({6-[(4-chloro-2-fluorophenyl)difluoromethyl]pyridin-2-yl}oxy)piperidin-1-yl]methyl}-3-{[(2S)-oxetan-2-yl]methyl}-3H-imidazo[4,5-b]pyridine-5-carboxylic acid] has an EC50 of 1 nM.
